Measured values reported in US7985889B2, “AtMIN7 mediated disease resistance to Pseudomonas syringae in Arabidopsis” (priority 2007, dated 2011).

How the values were obtained:
Experiment in all cases: Brefeldin A treatment of bacteria-infiltrated detached Arabidopsis leaves: bacterial multiplication and disease symptoms
Format in all cases: in vivo
hrcC mutant = conditions: Col-0 gl1 plants treated with water or BFA
Protocol: (§1) A standard enumeration procedure involves pathogen inoculation, using any one of described methods, supra, followed by assaying bacterial populations present within host tissues at regular intervals. The population present within the tissue was calculated based on the dilution factor divided by the amount of tissue present in each sample. Plotting log (culturable bacterial number/cm^2 leaf tissue) against time (usually in days) after pathogen inoculation produced an unfitted curve, i.e. growth curve. For a review of methods, see, Katagiri et al., in The Arabidopsis Book, Somerville, Meyerowitz, Eds. (American Society of Plant Biologists, Rockville, Md., 2002), website://dx.doi.org/10.1199/tab.0039; herein incorporated by reference.
(§2) Leaves were harvested and surface sterilized as follows: 1) whole leaves were removed from a host plant and gently mixed in a 70% ethanol solution for 1 minute. Leaves were blotted briefly on paper towels then rinsed in sterile distilled water for 1 minute, then blotted dry on paper towels. Leaf disks were excised from leaves with a 0.5 cm^2 or smaller cork borer, depending on the size of the sample leaves; 2) leaf disks from the leaves of 2 or more independent replicate plants were pooled for a single tissue sample and placed in a 1.5-mL microfuge tube with 100 μL sterile distilled water, the amount of leaf tissue per tube was recorded as leaf surface area. Three or more samples were harvested for each time point. Steps 1 and 2 were repeated for each sample; 3) Tissue samples were ground with a microfuge tube plastic pestle, by hand or by using a small hand-held electric drill. […] The number of serial dilutions necessary to get countable colonies were determined for each sample, however dilutions to 10^−7 were usually sufficient for any bacterial strain; 7) The samples were plated on the appropriate medium (e.g., Low salt Luria Bertani) supplemented with the necessary antibiotics to select for the specific inoculated bacterial strain. Plating was done in the traditional way (100 μL of a single sample was spread on a single plate) or several 10 μL aliquots of the 1:10 serial dilutions were spotted on to a single plate and allowed to dry onto the surface; and 8) Plates were placed at 30° C. for approximately 2 days with a cfu value determined for each dilution of each sample. […]
(§3) Leaves were infiltrated with 1×10^6 cfu/ml of bacteria, detached, and placed in microtiter wells with petioles immersed in the 36 μM BFA (Sigma Co.) solution. […] Bacterial populations and disease symptoms were determined on day 0 and day three.

Pst DC3000 ΔCEL mutant = test system: Pst DC3000 ΔCEL mutant
Protocol: as §1, §2, §3

Pst DC3000 = conditions: Col-0 gl1 plants treated with water or BFA
Protocol: as §1, §2, §3

Compound: C[C@H]1CCC/C=C/[C@@H]2C[C@H](O)C[C@H]2[C@H](O)/C=C/C(=O)O1 [BFA, Brefeldin A]
- multiplication or disease symptoms caused by the hrcC mutant (hrcC mutant): no significant differences
- virulence (both multiplication and disease symptoms) of the Pst DC3000 ΔCEL mutant (Pst DC3000 ΔCEL mutant; 36 μM BFA, wild-type Col-0 gl1 leaves infiltrated with 1×10^6 cfu/ml, day three, vs water): significantly enhanced
- restoration of the virulence of the Pst DC3000 ΔCEL mutant, BFA-treated leaves compared with AtMIN7 KO plants (Pst DC3000 ΔCEL mutant; BFA-treated leaves): greater than that in the AtMIN7 KO plants
- multiplication or disease symptoms caused by Pst DC3000 (Pst DC3000): no significant differences
